Experimental data from ChEMBL document CHEMBL1201862, “PubChem BioAssay data set” (2004).
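In this assay, cells in 96-well plates receive the compound at five concentrations for 48 hours. Endpoints are linearly interpolated between the surrounding concentrations. GI50: concentration for 50% inhibition of growth.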 The source made the active and inactive calls. Cut-off read from the data, not from the text of the source: active = GI50 up to about 1.1 µM and inactive = higher.

Key:
Assay in all cases: NCI anticancer screen, dose series, 48 h
RPMI-8226 = tested on: RPMI-8226
SN12C = tested on: SN12C
NCI-H226 = tested on: NCI-H226
OVCAR-5 = tested on: OVCAR-5
HCC 2998 = tested on: HCC 2998
M14 = tested on: M14
COLO 205 = tested on: COLO 205
Malme-3M = tested on: Malme-3M
786-0 = tested on: 786-0
SF-268 = tested on: SF-268
UACC-257 = tested on: UACC-257
MOLT-4 = tested on: MOLT-4
SK-MEL-2 = tested on: SK-MEL-2
CAKI-1 = tested on: CAKI-1
SNB-19 = tested on: SNB-19
NCI-H522 = tested on: NCI-H522
U-251 = tested on: U-251
HOP-92 = tested on: HOP-92

Measured: GI50

C/C(CN1C(=O)c2ccccc2C1=O)=N\NS(C)(=O)=O
inactive: RPMI-8226 > 100 µM | SN12C > 100 µM | NCI-H226 > 100 µM | OVCAR-5 > 100 µM | HCC 2998 > 100 µM | M14 > 100 µM | COLO 205 > 100 µM | Malme-3M > 100 µM | 786-0 > 100 µM | SF-268 > 100 µM | UACC-257 > 100 µM | MOLT-4 > 100 µM | SK-MEL-2 > 100 µM | CAKI-1 > 100 µM | SNB-19 > 100 µM | NCI-H522 > 100 µM | U-251 > 100 µM

COC(OC)c1cccc2c1C1(O)CCC3(CC21)OCCCCO3 (stereo not drawn)
inactive: RPMI-8226 > 100 µM | SN12C > 100 µM | NCI-H226 > 100 µM | OVCAR-5 > 100 µM | HCC 2998 > 100 µM | M14 > 100 µM | COLO 205 > 100 µM | Malme-3M > 100 µM | 786-0 > 100 µM | SF-268 > 100 µM | UACC-257 > 100 µM | MOLT-4 > 100 µM | SK-MEL-2 > 100 µM | CAKI-1 > 100 µM | SNB-19 > 100 µM | NCI-H522 > 100 µM | U-251 > 100 µM

C[N+](C)=c1nc(N2CCc3ccccc3C2)ss1.[O-][Cl+3]([O-])([O-])[O-]
inactive: RPMI-8226 69.8 µM | SN12C > 100 µM | NCI-H226 > 100 µM | HCC 2998 > 100 µM | M14 > 100 µM | COLO 205 42.8 µM | Malme-3M > 100 µM | 786-0 > 100 µM | SF-268 > 100 µM | UACC-257 > 100 µM | MOLT-4 30.7 µM | SK-MEL-2 > 100 µM | CAKI-1 > 100 µM | SNB-19 > 100 µM | NCI-H522 > 100 µM | U-251 > 100 µM

O=C(O)CCSC(=O)Nc1cccc2ccccc12
inactive: RPMI-8226 > 100 µM | SN12C > 100 µM | HOP-92 > 100 µM | NCI-H226 > 100 µM | OVCAR-5 > 100 µM | HCC 2998 > 100 µM | M14 > 100 µM | COLO 205 > 100 µM | Malme-3M > 100 µM | 786-0 > 100 µM | SF-268 > 100 µM | UACC-257 > 100 µM | MOLT-4 > 100 µM | CAKI-1 > 100 µM | SNB-19 > 100 µM | U-251 > 100 µM

C=CCC1([C@H](C)[C@@H](OC(C)=O)c2cc(OC)c(OC)c(OC)c2)C[C@@H](OC)CCC1=O (stereo partly drawn)
inactive: RPMI-8226 10.8 µM | SN12C 17.7 µM | HOP-92 23 µM | NCI-H226 22.5 µM | M14 15.6 µM | COLO 205 19.1 µM | Malme-3M 17.2 µM | 786-0 11.7 µM | SF-268 13.7 µM | UACC-257 > 10 µM | MOLT-4 18.6 µM | SK-MEL-2 15.3 µM | CAKI-1 70.8 µM | NCI-H522 11.1 µM | U-251 13.8 µM

CC(=O)OC1[C@H](OC(C)=O)C2=C(C)[C@@H](OC(C)=O)C[C@@]2(C(C)(C)O)[C@@H](OC(C)=O)[C@H]2[C@@]1(C)[C@@H](OC(C)=O)CC(OC(C)=O)[C@]21CO1 (stereo partly drawn)
inactive: RPMI-8226 > 100 µM | SN12C > 100 µM | NCI-H226 > 100 µM | OVCAR-5 > 100 µM | M14 > 100 µM | COLO 205 > 100 µM | Malme-3M > 100 µM | 786-0 > 100 µM | SF-268 > 100 µM | UACC-257 > 100 µM | MOLT-4 > 100 µM | SK-MEL-2 > 100 µM | CAKI-1 > 100 µM | SNB-19 > 100 µM | NCI-H522 > 100 µM | U-251 > 100 µM

Cn1cnc([N+](=O)[O-])c1Sc1nc2cccnc2[nH]1
inactive: RPMI-8226 68.5 µM | SN12C 40.3 µM | HOP-92 83 µM | NCI-H226 > 100 µM | OVCAR-5 > 100 µM | HCC 2998 > 100 µM | M14 > 100 µM | COLO 205 17.8 µM | Malme-3M > 100 µM | 786-0 > 100 µM | SF-268 74.8 µM | UACC-257 91.2 µM | MOLT-4 29.9 µM | CAKI-1 18.3 µM | SNB-19 > 100 µM | U-251 > 100 µM

O=C(c1ccccc1)C(c1ccccc1)C1(O)C(=O)Nc2c(Cl)ccc(Cl)c21 (stereo not drawn)
inactive: RPMI-8226 12.2 µM | SN12C 17.9 µM | HOP-92 19.6 µM | OVCAR-5 20.4 µM | HCC 2998 30.8 µM | M14 16.8 µM | COLO 205 22.2 µM | Malme-3M 17.4 µM | 786-0 19.5 µM | SF-268 21.9 µM | UACC-257 15.4 µM | MOLT-4 15.9 µM | SK-MEL-2 21.2 µM | CAKI-1 20.5 µM | SNB-19 30.3 µM | NCI-H522 18.5 µM | U-251 25.8 µM

Nc1ccc(C(=O)N/C(=C\c2cccc([N+](=O)[O-])c2)c2nc3c4c(ccc3[nH]2)C(=O)c2ccccc2C4=O)cc1
inactive: RPMI-8226 6.78 µM | SN12C > 100 µM | HOP-92 29.4 µM | OVCAR-5 > 100 µM | HCC 2998 > 100 µM | M14 > 100 µM | COLO 205 > 100 µM | Malme-3M > 100 µM | 786-0 17.7 µM | SF-268 2.94 µM | UACC-257 > 100 µM | MOLT-4 3.94 µM | SK-MEL-2 91.6 µM | CAKI-1 8.69 µM | SNB-19 13.6 µM | NCI-H522 4.41 µM | U-251 14 µM

CCO/C=C\C12CCCC1NC(c1ccccc1)(c1ccccc1)O2 (stereo not drawn)
inactive: SN12C 25.7 µM | HOP-92 24 µM | NCI-H226 43.8 µM | OVCAR-5 16.5 µM | M14 22.5 µM | Malme-3M 25.9 µM | 786-0 32.7 µM | SF-268 35.8 µM | UACC-257 27.5 µM | MOLT-4 19.2 µM | SK-MEL-2 23.2 µM | CAKI-1 23.3 µM | SNB-19 45.7 µM | NCI-H522 33.7 µM | U-251 33.3 µM

Brc1ccc2c(c1)C1(c3cc(Br)ccc3-2)c2cc(Br)ccc2-c2ccc(Br)cc21
inactive: RPMI-8226 > 100 µM | SN12C > 100 µM | NCI-H226 > 100 µM | OVCAR-5 > 100 µM | HCC 2998 > 100 µM | M14 > 100 µM | COLO 205 > 100 µM | Malme-3M > 100 µM | 786-0 > 100 µM | SF-268 > 100 µM | UACC-257 > 100 µM | MOLT-4 > 100 µM | SK-MEL-2 > 100 µM | CAKI-1 > 100 µM | SNB-19 > 100 µM | NCI-H522 > 100 µM | U-251 > 100 µM

N/C(=N\N=C=C1C(=O)Nc2ccc(F)cc21)NO
inactive: SN12C > 100 µM | HOP-92 65.3 µM | HCC 2998 > 100 µM | M14 > 100 µM | COLO 205 > 100 µM | Malme-3M > 100 µM | 786-0 > 100 µM | SF-268 > 100 µM | UACC-257 > 100 µM | MOLT-4 > 100 µM | SK-MEL-2 > 100 µM | CAKI-1 28 µM | NCI-H522 86.1 µM | U-251 > 100 µM
